Patent publication US20130131321A1, “LIGANDS FOR ANTIBODY AND Fc-FUSION PROTEIN PURIFICATION BY AFFINITY CHROMATOGRAPHY” (GRAFFINITY PHARMACEUTICALS GMBH, priority 2010, published 2013)
Read-outs that look alike come from different tables or passages of the source.

Legend:
[1] = system: host cell proteins (HCP); assay: Microtiter plate chromatography of resins, host cell proteins (bound); assay type: binding, CHO
[2] = system: Tocilizumab; assay: Microtiter plate chromatography of resins, Tocilizumab (bound, yield); assay type: binding, humanized
[3] = target: T1, Bevacizumab (Homo sapiens, UniProt P01857); assay: Microtiter plate chromatography of resins, Bevacizumab whole IgG (bound, yield, selectivity); assay type: binding, humanized
T1 construct: fused on or other part: humanised anti-VEGF-A VH domain N-terminal of the gamma-1 constant region (engineered, no UniProt entry)

[4] = system: Bevacizumab; assay: as above; assay type: binding, humanized
[5] = system: Palivizumab; assay: Microtiter plate chromatography of resins, Palivizumab (bound, yield); assay type: binding, humanized
[6] = system: human poly-IgG (h-poly-IgG); assay: Microtiter plate chromatography of resins, human poly-IgG (bound, yield); assay type: binding
[7] = fraction of whole IgG Bevacizumab bound to resin
[8] = mass of whole IgG Bevacizumab eluted / mass injected
[9] = fraction of injected host cell proteins bound to resin
[10] = fraction of injected protein bound to resin
[11] = fraction of injected whole IgG bound to resin
[12] = mass eluted / mass injected, whole IgG
[13] = bound Bevacizumab whole IgG / bound HCP, truncated beyond values of 10

Row | Structure (SMILES) | HCP Bound (%) ([1]; host cell proteins) | Tocilizumab Bound (%) [2] [%] | Tocilizumab Yield (%) [2] [%] | Bevacizumab IgG Bound (%) [3, 7] [%] | Bevacizumab IgG Yield (%) [3, 8] [%] | Selectivity [4] | Palivizumab Bound (%) [5] [%] | Palivizumab Yield (%) [5] [%] | h-poly-IgG Bound (%) [6] [%] | h-poly-IgG Yield (%) [6] [%] | HCP Bound (%) [1, 9] [%] | Tocilizumab Bound (%) [2, 10] [%] | Tocilizumab Yield (%) ([2]; mass eluted / mass injected) | Bevacizumab IgG Bound (%) [3, 11] [%] | Bevacizumab IgG Yield (%) [3, 12] [%] | Palivizumab Bound (%) [5, 10] [%] | Palivizumab Yield (%) ([5]; mass eluted / mass injected) | h-poly-IgG Bound (%) [6, 10] [%] | h-poly-IgG Yield (%) ([6]; mass eluted / mass injected) | further results
1 | COc1ccc(NC(=O)c2cc(-c3ccccc3)no2)cc1C(=O)NCCCN [Ligand L51, 2-Methoxy-5-(3-phenylisoxazol-5-ylcarboxamido)benzoic acid (3-amino-1-propyl)amide] | 30 | 95 | 93 | 100 | 95 | 3.3 | 85 | 85 | 89 | 89 | – | – | – | – | – | – | – | – | – | –
2 | COc1ccc(NC(=O)c2cn3ccsc3n2)cc1C(=O)NCCOCCOCC(=O)NCCCCCCN [Ligand L78, 8-[5-(Imidazo-[2,1-b]thiazol-6-ylcarboxamido)-2-methoxyphenylcarboxamido]-3,6-dioxaoctanoic acid (6-amino-1-hexyl)amide] | – | – | – | – | – | 7.4 | – | – | – | – | 14 | 94 | 94 | 100 | 94 | 61 | 61 | 76 | 76 | –
3 | COc1ccc(NC(=O)c2cn3ccsc3n2)cc1C(=O)NCCOCCOCCNC(=O)NCCOCCOCCN [Ligand L69, N-(8-Amino-3,6-dioxaoctyl)-N′-{8-[5-(imidazo[2,1-b]thiazol-6-ylcarboxamido)-2-methoxyphenylcarboxamido]-3,6-dioxaoctyl}urea] | – | – | – | – | – | – | – | – | – | – | 2 | 78 | 73 | 100 | 100 | 45 | 45 | 63 | 63 | Selectivity [4, 13]: 10.0
4 | COc1ccc(NC(=O)c2cn(C)c3ccccc23)cc1C(=O)NCCCN [Ligand L25, 2-Methoxy-5-(1-methylindol-3-yl)carboxamidobenzoic acid N-(3-aminopropyl)amide] | 46 | 100 | 93 | 100 | 95 | 2.2 | 82 | 78 | 93 | 81 | – | – | – | – | – | – | – | – | – | –
5 | Cn1nc(NC(=O)c2cccc(C(=O)NCCCN)c2)c2ccccc21 [Ligand L71, Isophthalic acid N-(3-aminopropyl)-N′-(1-methylindazol-3-yl)amide] | – | – | – | – | – | 4.0 | – | – | – | – | 25 | 51 | 49 | 100 | 88 | 24 | 24 | 45 | 45 | –
6 | COc1ccc(NC(=O)c2cn3ccsc3n2)cc1C(=O)NCCOCCOCC(=O)NCCOCCOCC(=O)NCCCN [Ligand L66, 8-{8-[5-(Imidazo[2,1-b]thiazol-6-ylcarboxamido)-2-methoxyphenylcarboxamido]-3,6-dioxaoctanoylamido}-3,6-dioxaoctanoic acid (3-amino-1-propyl)amide] | – | – | – | – | – | – | – | – | – | – | 0 | 54 | 53 | 100 | 100 | 41 | 27 | 46 | 46 | Selectivity [4, 13]: 10.0
7 | Cn1nc(C(=O)Nc2ccc(C(=O)NCCCN)cc2)cc1-c1ccco1 [Ligand L18, 4-[5-(2-Furyl)-1-methylpyrazol-3-yl]carboxamidobenzoic acid N-(3-aminopropyl)amide] | 46 | 76 | 76 | 100 | 95 | 2.2 | 54 | 43 | 68 | 71 | – | – | – | – | – | – | – | – | – | –
8 | COc1ccc(NC(=O)c2occ3ccccc23)cc1C(=O)NCCCN [Ligand L32, 5-(Benzo[c]furan-1-yl)carboxamido-2-methoxybenzoic acid N-(3-aminopropyl)amide] | 49 | 100 | 95 | 100 | 87 | 2.0 | 100 | 95 | 95 | 74 | – | – | – | – | – | – | – | – | – | –
9 | COc1ccc(NC(=O)c2cncc(-c3ccccc3)c2)cc1C(=O)NCCCN [Ligand L11, 2-Methoxy-5-(3-phenylpyridin-5-yl)carboxamidobenzoic acid N-(3-aminopropyl)amide] | 56 | 100 | 89 | 95 | 94 | 1.7 | 78 | 75 | 89 | 79 | – | – | – | – | – | – | – | – | – | –
10 | NCCCNC(=O)c1cccc(C(=O)Nc2nc(-c3ccccc3)cs2)c1 [Ligand L73, Isophthalic acid N-(3-aminopropyl)-N′-(4-phenylthiazol-2-yl)amide] | – | – | – | – | – | 1.9 | – | – | – | – | 52 | 97 | 95 | 100 | 92 | 87 | 87 | 92 | 87 | –
11 | COc1ccc(NC(=O)c2onc3ccccc23)cc1C(=O)NCCCN [Ligand L31, 5-(Benzo[c]isoxazol-3-yl)carboxamido-2-methoxybenzoic acid N-(3-aminopropyl)amide] | 23 | 100 | 98 | 100 | 96 | 4.4 | 99 | 94 | 95 | 74 | – | – | – | – | – | – | – | – | – | selectivity index ([4]; fraction of bound Bevacizumab whole IgG divided by fraction of bound HCP, truncated beyond 10): 4.4
12 | COc1ccc(NC(=O)c2cc3ccccn3n2)cc1C(=O)NCCCN [Ligand L46, 2-Methoxy-5-(pyrazolo[1,5-a]pyridin-2-ylcarboxamido)benzoic acid (3-amino-1-propyl)amide] | 20 | 100 | 97 | 100 | 82 | 5.0 | 85 | 85 | 93 | 93 | – | – | – | – | – | – | – | – | – | –
13 | COc1ccc(-c2noc(C(=O)Nc3ccc(OC)c(C(=O)NCCCN)c3)n2)cc1 [Ligand L54, 2-Methoxy-5-[3-(4-methoxyphenyl)-1,2,4-oxadiazol-5-ylcarboxamido]benzoic acid (3-amino-1-propyl)amide] | 36 | 100 | 100 | 100 | 100 | 2.8 | 100 | 84 | 100 | 98 | – | – | – | – | – | – | – | – | – | –
